Values joined by “and” are separate entries in the source; they are usually repeats but may differ in a detail not shown here. Equal entries are not always repeated.
Test system: 439559-082-T-J2-PDC spheroids viability
Assay: Anticancer human tumor 439559-082-T-J2-PDC patient-derived colon adenocarcinoma cell line growth inhibition [GQUAD]
Conditions: for viability, T/C: stronger effect = lower value
Description: DNA G-quadruplex Stabilizer Agents in Combinations in Complex Spheroids
A high-throughput screen of multi-cell type tumor spheroids was designed to identify active combinations of DNA G-quadruplex stabilizer agents and targeted small molecules. Complex spheroids include a stromal component modeled by human endothelial cells (HUVEC) and fibroblasts modeled by human mesenchymal stem cells (MSCs). The concentration ranges selected for each drug and investigational agent were based upon clinically achievable concentrations if the clinical Cmax of the agent was known.
Compounds. The drugs and investigational agents: pidnarulex (CX-5461; NSC782164), APTO-253 (NSC789042), BRACO-19 (NSC847499), peposertib (NSC802822), ceralasertib (NSC780249), elimusertib (NSC800525), camonsertib (NSC841442), AZD-1390 (NSC803789), olaparib (NSC753686), talazoparib (NSC767125), ART-558 (NSC835418), sotorasib (NSC818433), MRTX-1133 (NSC836407), SN-38 (NSC673596), topotecan (NSC609699), etoposide (NSC141540), doxorubicin (NSC123127), gemcitabine (NSC613327), 5-fluorouracil (NSC19893), paclitaxel (NSC125973), vemurafenib (NSC761431), panobinostat (NSC761190), R-306465 (JNJ-16241199; NSC773264), adavosertib (NSC754352), TP-3654 (NSC805149), carboplatin (NSC241240), KSQ-4279 (NSC840948), and staurosporine (NSC755774) were obtained from the National Cancer Institute (NCI) Developmental Therapeutics Program Chemical Repository (34). The FDA-approved anticancer drug set is available from the NCI Developmental Therapeutics Program. […] The stock solutions were prepared in dimethyl sulfoxide (DMSO, Sigma-Aldrich, St. Louis, MO, cat. D2650) at 800-fold the tested concentration and stored at -70 degrees C prior to their use. All drugs and investigational agents were tested over a range starting from a high concentration at or near the clinical Cmax and decreasing in half-log increments. If the clinical Cmax for an agent had not been determined, the highest concentration tested was 10 microM.
2.3 Cell Culture. All cells were maintained in an incubator at 37 degrees C and 5% CO2 with 95% humidity. The PDC lines were cultured according to standard operating procedures established by the NCI PDMR. All PDCs were thawed and cultured in Matrigel-coated flasks prepared with a working solution of 1X Ham's F-12 nutrient mix, without supplementation (Invitrogen, cat. 11765054), 100 U/mL penicillin-streptomycin (Invitrogen, cat. 15140122), and 2.5% Matrigel (Corning Inc., cat. 354248) for the first three passages. The 857933-349-R-J2-PDC line was cultured in 6C/Colon 1B media, which includes advanced DMEM/F-12 (Thermo Fisher Scientific, cat. 12634028), 10 mM HEPES (Thermo Fisher Scientific, cat. 15630080), 1X GlutaMAX supplement (Thermo Fisher Scientific, cat. 35050061), 0.1 mg/mL primocin (InvivoGen, cat. ant-pm-2), 10% defined fetal bovine serum, heat inactivated (HyClone Laboratories Inc., cat. SH30070.03HI), 50% L-WRN conditioned media (ATCC, cat. CRL-3276), 1.25 mM N-Acetyl-L-cysteine (Sigma-Aldrich, cat. A9165), 10 mM nicotinamide (Sigma-Aldrich, cat. N0636), 1X B-27 supplement (Thermo Fisher Scientific, cat. 17504044), 1X N-2 supplement (Thermo Fisher Scientific, cat. 17502048), 10 microM Y-27632 dihydrochloride (Tocris Bioscience, cat. 1254), and 50 ng/mL human EGF recombinant protein (Thermo Fisher Scientific, cat. PHG0311). The 485176-168-R4-J1-PDC line was cultured in Panc media, which includes all 6C/Colon 1B media components plus 100 ng/mL human FGF-10 (Thermo Fisher Scientific, cat. 100-26), 500 nM SB-431542 (Selleckchem, cat. S1067), and gastrin (Tocris, cat. 3006).
[…]

[1] = curve of first compound, second compound 0.0316 µM
[2] = curve of first compound, second compound 0.1 µM
[3] = curve of first compound, second compound 0.316 µM
[4] = curve of first compound, second compound 1 µM
[5] = curve of first compound, second compound 3.16 µM
[6] = curve of first compound, second compound 10 µM
[7] = second compound 0.0316 µM, first compound 0.0316 µM
[8] = second compound 0.0316 µM, first compound 0.1 µM
[9] = second compound 0.0316 µM, first compound 0.316 µM
[10] = second compound 0.0316 µM, first compound 1 µM
[11] = second compound 0.0316 µM, first compound 3.16 µM
[12] = second compound 0.0316 µM, first compound 10 µM
[13] = second compound 0.1 µM, first compound 0.0316 µM
[14] = second compound 0.1 µM, first compound 0.1 µM
[15] = second compound 0.1 µM, first compound 0.316 µM
[16] = second compound 0.1 µM, first compound 1 µM
[17] = second compound 0.1 µM, first compound 3.16 µM
[18] = second compound 0.1 µM, first compound 10 µM
[19] = second compound 0.316 µM, first compound 0.0316 µM
[20] = second compound 0.316 µM, first compound 0.1 µM
[21] = second compound 0.316 µM, first compound 0.316 µM
[22] = second compound 0.316 µM, first compound 1 µM
[23] = second compound 0.316 µM, first compound 3.16 µM
[24] = second compound 0.316 µM, first compound 10 µM
[25] = second compound 1 µM, first compound 0.0316 µM
[26] = second compound 1 µM, first compound 0.1 µM
[27] = second compound 1 µM, first compound 0.316 µM
[28] = second compound 1 µM, first compound 1 µM
[29] = second compound 1 µM, first compound 3.16 µM
[30] = second compound 1 µM, first compound 10 µM
[31] = second compound 3.16 µM, first compound 0.0316 µM
[32] = second compound 3.16 µM, first compound 0.1 µM
[33] = second compound 3.16 µM, first compound 0.316 µM
[34] = second compound 3.16 µM, first compound 1 µM
[35] = second compound 3.16 µM, first compound 3.16 µM
[36] = second compound 3.16 µM, first compound 10 µM
[37] = second compound 10 µM, first compound 0.0316 µM
[38] = second compound 10 µM, first compound 0.1 µM
[39] = second compound 10 µM, first compound 0.316 µM
[40] = second compound 10 µM, first compound 1 µM
[41] = second compound 10 µM, first compound 3.16 µM
[42] = second compound 10 µM, first compound 10 µM
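Also: spheroids exposed to the agents for 7 days before readout.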
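For viability, T/C in this document: percent of luminescence signal in DMSO vehicle wells taken as 100% viability.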

For `CC1COCCN1c1cc(C2(S(C)(=N)=O)CC2)nc(-c2ccnc3[nH]ccc23)n1` (stereo not drawn) + Cc1cnc(CNC(=O)c2c(=O)c3ccc(N4CCCN(C)CC4)nc3n3c2sc2ccccc23)cn1, the IC50 [1] was greater than 10 µM, the IC50 [2] was greater than 10 µM and the IC50 [3] was greater than 10 µM. The IC50 [4] was greater than 10 µM, the IC50 [5] was greater than 10 µM and the IC50 [6] was greater than 10 µM. It also gave a viability, T/C [7] of 99.5%, a viability, T/C [8] of 86.3% and a viability, T/C [9] of 93.8%. For the same compound, the viability, T/C [10] was 89.6%, the viability, T/C [11] was 90.9% and the viability, T/C [12] was 69.9%. It also gave a viability, T/C [13] of 100%, a viability, T/C [14] of 94.4% and a viability, T/C [15] of 86.4%. For the same compound, the viability, T/C [16] was 85.5%, the viability, T/C [17] was 86.5% and the viability, T/C [18] was 61.8%. It also gave a viability, T/C [19] of 80.3%, a viability, T/C [20] of 78.3% and a viability, T/C [21] of 80.8%. The viability, T/C [22] was 81.5%, the viability, T/C [23] was 79.1% and the viability, T/C [24] was 60.9%. For the same compound, the viability, T/C [25] was 76.1%, the viability, T/C [26] was 65.2% and the viability, T/C [27] was 78.2%. The viability, T/C [28] was 75.5%, the viability, T/C [29] was 75.8% and the viability, T/C [30] was 65.6%. It also gave a viability, T/C [31] of 62%, a viability, T/C [32] of 74.5% and a viability, T/C [33] of 66.4%. For the same compound, the viability, T/C [34] was 71.3%, the viability, T/C [35] was 75.3% and the viability, T/C [36] was 55.7%. The viability, T/C [37] was 61.3%, the viability, T/C [38] was 59.1% and the viability, T/C [39] was 66.8%. For the same compound, the viability, T/C [40] was 60.8%, the viability, T/C [41] was 61.6% and the viability, T/C [42] was 49.2%.

Compound `COc1cc(C2c3cc4c(cc3C(OC3OC5COC(C)OC5C(O)C3O)C3COC(=O)C23)OCO4)cc(OC)c1O` (stereo not drawn) + Cc1cnc(CNC(=O)c2c(=O)c3ccc(N4CCCN(C)CC4)nc3n3c2sc2ccccc23)cn1 has an IC50 [1] greater than 10 µM, an IC50 [2] greater than 10 µM and an IC50 [3] greater than 10 µM. It also gave an IC50 [4] greater than 10 µM, an IC50 [5] greater than 10 µM and an IC50 [6] greater than 10 µM. For the same compound, the viability, T/C [7] was 92.8%, the viability, T/C [8] was 99.9% and the viability, T/C [9] was 93.4%. For the same compound, the viability, T/C [10] was 85.5%, the viability, T/C [11] was 84.1% and the viability, T/C [12] was 60.3%. The viability, T/C [13] was 86.2%, the viability, T/C [14] was 83.7% and the viability, T/C [15] was 85.1%. For the same compound, the viability, T/C [16] was 76.5%, the viability, T/C [17] was 80.5% and the viability, T/C [18] was 59.9%. It also gave a viability, T/C [19] of 94.4%, a viability, T/C [20] of 86.5% and a viability, T/C [21] of 81.4%. For the same compound, the viability, T/C [22] was 75.2%, the viability, T/C [23] was 70.2% and the viability, T/C [24] was 56.3%. It also gave a viability, T/C [25] of 74.8%, a viability, T/C [26] of 78.9% and a viability, T/C [27] of 70.6%. It also gave a viability, T/C [28] of 70%, a viability, T/C [29] of 64.8% and a viability, T/C [30] of 55.1%. It also gave a viability, T/C [31] of 63.6%, a viability, T/C [32] of 73.3% and a viability, T/C [33] of 66%. It also gave a viability, T/C [34] of 66.5%, a viability, T/C [35] of 66.2% and a viability, T/C [36] of 56.3%. For the same compound, the viability, T/C [37] was 72.3%, the viability, T/C [38] was 63.6% and the viability, T/C [39] was 62.5%. For the same compound, the viability, T/C [40] was 60.8%, the viability, T/C [41] was 59.8% and the viability, T/C [42] was 49.8%.

Compound `CC1COCCN1c1cc(C2(O)CC3CCC(C2)O3)c2cnn(-c3ccn[nH]3)c2n1` (stereo not drawn) + Cc1[nH]c2ccc(F)cc2c1-c1nc2c3cccnc3c3ncccc3c2[nH]1 has an IC50 [1] of 1.69 µM, an IC50 [2] of 2.59 µM and an IC50 [3] of 1.45 µM. It also gave an IC50 [4] of 1.49 µM, an IC50 [5] of 0.863 µM and an IC50 [6] of 0.867 µM. The viability, T/C [7] was 84.5%, the viability, T/C [8] was 84.2% and the viability, T/C [9] was 78.2%. It also gave a viability, T/C [10] of 58.6%, a viability, T/C [11] of 38.9% and a viability, T/C [12] of 39.5%. For the same compound, the viability, T/C [13] was 89.5%, the viability, T/C [14] was 76.3% and the viability, T/C [15] was 71.1%. For the same compound, the viability, T/C [16] was 61.9%, the viability, T/C [17] was 46.7% and the viability, T/C [18] was 35.2%. It also gave a viability, T/C [19] of 97.2%, a viability, T/C [20] of 80.2% and a viability, T/C [21] of 70.8%. For the same compound, the viability, T/C [22] was 49.9%, the viability, T/C [23] was 44.6% and the viability, T/C [24] was 37.3%. It also gave a viability, T/C [25] of 83.8%, a viability, T/C [26] of 77.3% and a viability, T/C [27] of 70.2%. It also gave a viability, T/C [28] of 55%, a viability, T/C [29] of 40.3% and a viability, T/C [30] of 33.4%. It also gave a viability, T/C [31] of 85.7%, a viability, T/C [32] of 67.8% and a viability, T/C [33] of 63.5%. It also gave a viability, T/C [34] of 51%, a viability, T/C [35] of 32.8% and a viability, T/C [36] of 27%. The viability, T/C [37] was 75.4%, the viability, T/C [38] was 74.5% and the viability, T/C [39] was 57.1%. The viability, T/C [40] was 52.1%, the viability, T/C [41] was 33.4% and the viability, T/C [42] was 27.1%.

`C=CC(=O)N1CCN(c2nc(=O)n(-c3c(C)ccnc3C(C)C)c3nc(-c4c(O)cccc4F)c(F)cc23)C(C)C1` (stereo not drawn) was tested, and the viability, T/C (compound 0.0316 µM) was 101% (2×) and 96.5%, the viability, T/C (compound 0.1 µM) was 101% and 91.7% and 89.6% and the viability, T/C (compound 0.316 µM) was 94.3% and 91.1% and 108%. For the same compound, the viability, T/C (compound 1 µM) was 110% and 96.3% and 112%, the viability, T/C (compound 3.16 µM) was 99% and 108% and 107% and the viability, T/C (compound 10 µM) was 98.8% and 96.6% and 105%. The IC50 (curve of compound) was greater than 10 µM.

From PubChem BioAssay AID2060510 (Molecular Pharmacology Branch, DTP, NCI, 2025)
